Measurements taken from the supplement of paper PMC11451515.

Test system: NOMO1
Assay: cell viability relative to DMSO control; higher = less cytotoxic
Conditions: 48 h
Outline: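 NOMO1 or SEM cells were plated at 500 cells/well and P12-Ichikawa cells at 1000 cells/well in 1536-well plates (5 μl), after each leukemia line had been adapted for at least four passages in each medium. Pin dosing delivered library compounds in DMSO at 11 threefold concentrations, 47 μM to 0.79 nM. CellTiter-Glo One luminescence was read after 48 h at 37°C. Viability is reported as a per-plate percentage of DMSO wells, with cell-free wells as background.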

[1] = HPLM + 10% dialyzed FBS, 0.000781 µM
[2] = HPLM + 10% dialyzed FBS, 0.00234 µM
[3] = HPLM + 10% dialyzed FBS, 0.00702 µM
[4] = HPLM + 10% dialyzed FBS, 0.0211 µM
[5] = HPLM + 10% dialyzed FBS, 0.0632 µM
[6] = HPLM + 10% dialyzed FBS, 0.19 µM
[7] = HPLM + 10% dialyzed FBS, 0.569 µM
[8] = HPLM + 10% dialyzed FBS, 1.71 µM
[9] = HPLM + 10% dialyzed FBS, 5.12 µM
[10] = HPLM + 10% dialyzed FBS, 15.4 µM
[11] = HPLM + 10% dialyzed FBS, 46.1 µM
[12] = RPMI 5 mM glucose + 10% FBS, 0.000781 µM
[13] = RPMI 5 mM glucose + 10% FBS, 0.00234 µM
[14] = RPMI 5 mM glucose + 10% FBS, 0.00702 µM
[15] = RPMI 5 mM glucose + 10% FBS, 0.0211 µM
[16] = RPMI 5 mM glucose + 10% FBS, 0.0632 µM
[17] = RPMI 5 mM glucose + 10% FBS, 0.19 µM
[18] = RPMI 5 mM glucose + 10% FBS, 0.569 µM
[19] = RPMI 5 mM glucose + 10% FBS, 1.71 µM
[20] = RPMI 5 mM glucose + 10% FBS, 5.12 µM
[21] = RPMI 5 mM glucose + 10% FBS, 15.4 µM
[22] = RPMI 5 mM glucose + 10% FBS, 46.1 µM
[23] = RPMI 5 mM glucose + 10% dialyzed FBS, 0.000781 µM
[24] = RPMI 5 mM glucose + 10% dialyzed FBS, 0.00234 µM
[25] = RPMI 5 mM glucose + 10% dialyzed FBS, 0.00702 µM
[26] = RPMI 5 mM glucose + 10% dialyzed FBS, 0.0211 µM
[27] = RPMI 5 mM glucose + 10% dialyzed FBS, 0.0632 µM
[28] = RPMI 5 mM glucose + 10% dialyzed FBS, 0.19 µM
[29] = RPMI 5 mM glucose + 10% dialyzed FBS, 0.569 µM
[30] = RPMI 5 mM glucose + 10% dialyzed FBS, 1.71 µM
[31] = RPMI 5 mM glucose + 10% dialyzed FBS, 5.12 µM
[32] = RPMI 5 mM glucose + 10% dialyzed FBS, 15.4 µM
[33] = RPMI 5 mM glucose + 10% dialyzed FBS, 46.1 µM

Row | Compound | cell viability [1] | cell viability [2] | cell viability [3] | cell viability [4] | cell viability [5] | cell viability [6] | cell viability [7] | cell viability [8] | cell viability [9] | cell viability [10] | cell viability [11] | cell viability [12] | cell viability [13] | cell viability [14] | cell viability [15] | cell viability [16] | cell viability [17] | cell viability [18] | cell viability [19] | cell viability [20] | cell viability [21] | cell viability [22] | cell viability [23] | cell viability [24] | cell viability [25] | cell viability [26] | cell viability [27] | cell viability [28] | cell viability [29] | cell viability [30] | cell viability [31] | cell viability [32] | cell viability [33]
1 | Oc1ccc(-c2ccc(-c3cc(Nc4cccc(CNC5CC5)c4)[nH]n3)cc2)c(O)c1 | 93.9% | 104% | 108% | 116% | 127% | 116% | 102% | 93.4% | 41.4% | 40% | 60.6% | 104% | 99% | 103% | 97.4% | 115% | 109% | 114% | 96.7% | 49.5% | 27.8% | 30.8% | 99.3% | 94.4% | 106% | 109% | 107% | 102% | 119% | 107% | 71.1% | 26% | 31.1%
2 | Cc1ccc([S+](=O)([O-])Nc2cc(Cl)ccc2C(=O)Nc2nc(-c3ccccc3)cs2)cc1 | 122% | 117% | 129% | 118% | 121% | 124% | 128% | 119% | 103% | 119% | 9.35% |  |  |  |  |  |  |  |  |  |  |  |  |  |  |  |  |  |  |  |  |  | 
3 | N#Cc1ccnc(N2C(=O)CC[C@H]2C(=O)N(c2cncc(F)c2)[C@H](C(=O)NC2CC(F)(F)C2)c2ccccc2Cl)c1 | 90.6% | 92.3% | 96.6% | 114% | 101% | 115% | 67.7% | 49% | 19.6% | 26.2% | 30.7% | 93.2% | 95.6% | 116% | 95.1% | 90.1% | 92% | 94.6% | 79.2% | 16.8% | 16.5% | 14.5% | 97.2% | 97.1% | 96.4% | 101% | 97.6% | 90.7% | 94.8% | 88.2% | 42.2% | 32.1% | 18.8%
4 | CCOC(=O)N[C@@H]1CC[C@@H]2[C@@H](C1)C[C@H]1C(=O)O[C@H](C)[C@H]1[C@H]2/C=C/c1ccc(-c2cccc(F)c2)cn1 |  |  |  |  |  |  |  |  |  |  |  | 114% | 115% | 122% | 128% | 127% | 121% | 120% | 131% | 127% | 142% | 79% | 125% | 112% | 122% | 109% | 115% | 118% | 133% | 129% | 131% | 125% | 76.8%
5 | CC(C)(C)OC(=O)Nc1ccc(-c2cc(C(=O)NCCCCCCC(=O)NO)no2)cc1 | 88.5% | 89% | 84.4% | 89.8% | 98.3% | 104% | 104% | 99.4% | 68.7% | 13.7% | 4.88% | 86.7% | 80.1% | 81.1% | 84.3% | 85.3% | 88.6% | 99.4% | 80.8% | 67.1% | 11.8% | 4.55% | 86.3% | 82.8% | 89.2% | 88.2% | 99.3% | 92.1% | 101% | 72.9% | 73.8% | 13.1% | 4.05%
6 | Cc1nc(N)ncc1-c1nc(N2CCOCC2)c2sc(C(C)(C)O)cc2n1 |  |  |  |  |  |  |  |  |  |  |  | 109% | 118% | 113% | 117% | 106% | 64% | 18.7% | 18.5% | 10.5% | 9.97% | 9.89% | 114% | 113% | 94.2% | 111% | 89.5% | 86.4% | 28.1% | 22.6% | 13.3% | 11.4% | 7.33%
7 | CN(C)[C@@H](CCOc1cccc2ccccc12)c1ccccc1 | 110% | 117% | 129% | 103% | 124% | 114% | 110% | 97.5% | 86.4% | 106% | 70.6% | 105% | 112% | 106% | 109% | 119% | 106% | 110% | 113% | 99.8% | 98.4% | 68.9% | 113% | 114% | 114% | 111% | 106% | 99% | 119% | 113% | 114% | 92.7% | 52.1%
8 | COc1cc2ncnc(Nc3cccc(Cl)c3)c2cc1OC | 83% | 93.2% | 86.9% | 80.6% | 69.7% | 59% | 57% | 41.4% | 39.2% | 36% | 3.63% | 95.7% | 101% | 99.3% | 96.6% | 102% | 85.9% | 82.1% | 57.7% | 48.7% | 39.6% | 34.4% | 100% | 95% | 101% | 101% | 76.2% | 75.1% | 72.9% | 47.7% | 45.8% | 38.9% | 37.5%
9 | CC(C)(O)C(=O)Nc1ccc([N+](=O)[O-])c(C(F)(F)F)c1 | 94.7% | 116% | 131% | 124% | 122% | 135% | 126% | 65.8% | 38% | 30.6% | 30.5% | 118% | 123% | 124% | 122% | 120% | 132% | 125% | 51.1% | 29% | 24.1% | 25.7% |  |  |  |  |  |  |  |  |  |  | 
